Activity calls are given as the source filed them. No cut-off for these calls is given here.
How the values were obtained:
NCI-H2228 [1] = assay: Induction of apoptosis in human NCI-H2228 cells assessed as early apoptotic cells by measuring bright green fluorescence at 25 nM incubated for 48 hrs by AO/EB staining based fluorescence microscopic analysis; assay type: functional, cell-based
NCI-H2228 [2] = assay: Induction of cell cycle arrest in human NCI-H2228 cells assessed as increase in G1 phase cells at 100 nM incubated for 48 hrs by PI/RNase staining based flow cytometry analysis (reference value: 49.72 %); assay type: functional
[3] = biological target: T1, ALK tyrosine kinase receptor (Homo sapiens, UniProt Q9UM73); assay: Inhibition of ALK phosphorylation in human NCI-H2228 cells measured after 24 hrs by Western blot analysis; assay type: cell-based; conditions: dose 25-100 nM, DDE = dose-dependent effect
Target sequence in this assay (Q9UM73 19-1620 limits assumed): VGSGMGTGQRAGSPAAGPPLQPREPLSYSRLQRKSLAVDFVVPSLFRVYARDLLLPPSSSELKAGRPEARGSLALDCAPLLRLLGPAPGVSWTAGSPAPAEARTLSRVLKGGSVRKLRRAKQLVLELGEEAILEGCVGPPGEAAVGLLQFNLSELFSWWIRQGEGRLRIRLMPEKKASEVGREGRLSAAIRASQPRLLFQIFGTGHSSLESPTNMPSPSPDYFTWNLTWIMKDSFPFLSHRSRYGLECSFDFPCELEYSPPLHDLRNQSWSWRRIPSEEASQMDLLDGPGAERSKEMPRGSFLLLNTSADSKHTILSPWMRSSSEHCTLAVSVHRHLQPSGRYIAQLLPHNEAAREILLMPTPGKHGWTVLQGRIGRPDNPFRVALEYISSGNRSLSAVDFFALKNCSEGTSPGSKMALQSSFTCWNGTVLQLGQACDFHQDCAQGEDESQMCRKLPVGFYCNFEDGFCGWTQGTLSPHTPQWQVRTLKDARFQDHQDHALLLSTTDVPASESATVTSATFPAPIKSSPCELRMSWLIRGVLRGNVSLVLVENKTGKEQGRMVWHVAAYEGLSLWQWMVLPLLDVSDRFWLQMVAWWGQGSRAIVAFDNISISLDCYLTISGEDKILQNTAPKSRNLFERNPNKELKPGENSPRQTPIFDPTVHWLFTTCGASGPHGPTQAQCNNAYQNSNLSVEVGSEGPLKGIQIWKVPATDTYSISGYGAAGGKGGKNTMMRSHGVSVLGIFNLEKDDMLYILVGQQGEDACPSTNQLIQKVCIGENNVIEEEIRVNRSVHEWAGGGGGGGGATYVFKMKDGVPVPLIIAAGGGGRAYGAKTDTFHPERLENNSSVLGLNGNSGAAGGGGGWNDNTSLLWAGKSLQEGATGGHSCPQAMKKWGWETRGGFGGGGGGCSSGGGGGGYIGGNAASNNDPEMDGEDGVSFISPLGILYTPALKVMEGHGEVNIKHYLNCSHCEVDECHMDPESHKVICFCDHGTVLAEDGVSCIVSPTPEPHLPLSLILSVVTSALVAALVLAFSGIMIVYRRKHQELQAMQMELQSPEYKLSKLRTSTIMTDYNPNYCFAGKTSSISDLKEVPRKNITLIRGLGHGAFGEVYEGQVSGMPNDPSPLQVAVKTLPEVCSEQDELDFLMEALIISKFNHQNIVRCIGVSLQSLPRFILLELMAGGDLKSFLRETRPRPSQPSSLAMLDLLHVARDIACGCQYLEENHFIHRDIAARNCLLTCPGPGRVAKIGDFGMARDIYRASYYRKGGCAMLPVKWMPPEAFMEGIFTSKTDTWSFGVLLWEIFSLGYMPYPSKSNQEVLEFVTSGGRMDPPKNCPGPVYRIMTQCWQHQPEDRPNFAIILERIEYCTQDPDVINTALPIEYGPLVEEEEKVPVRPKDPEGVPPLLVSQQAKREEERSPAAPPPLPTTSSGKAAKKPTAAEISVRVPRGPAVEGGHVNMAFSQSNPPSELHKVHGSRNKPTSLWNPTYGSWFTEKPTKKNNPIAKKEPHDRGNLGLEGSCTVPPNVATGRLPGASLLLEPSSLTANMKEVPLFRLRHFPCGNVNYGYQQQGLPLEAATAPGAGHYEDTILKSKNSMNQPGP

NCI-H2228 [4] = assay: Induction of apoptosis in human NCI-H2228 cells assessed as total apoptotic cells at 25 nM incubated for 48 hrs by AnnexinV-FITC/propidium iodide staining based flow cytometry analysis; assay type: functional
NCI-H2228 [5] = assay: Induction of cell cycle arrest in human NCI-H2228 cells assessed as decrease in G2 phase cells at 100 nM incubated for 48 hrs by PI/RNase staining based flow cytometry analysis (reference value: 15.38 %); assay type: functional; design: scale not given: the % may be the effect or the level left
NCI-H2228 [6] = assay: Induction of apoptosis in human NCI-H2228 cells assessed as early apoptotic cells at 50 nM incubated for 48 hrs by AnnexinV-FITC/propidium iodide staining based flow cytometry analysis (reference value: 2.45 %); assay type: functional
[7] = biological target: ALK tyrosine kinase receptor (Homo sapiens, UniProt Q9UM73, L1196M); assay: Inhibition of N-terminal GST-tagged human ceritinib-resistant ALK L1196M mutant (1058 to 1620 residues) cytoplasmic domain expressed in baculovirus infected Sf21 cells incubated for 1 hrs in the presence of ATP by mobility shift assay
ALK tyrosine kinase receptor (Homo sapiens, UniProt Q9UM73, L1196M), sequence (Q9UM73 19-1620 L1196M limits assumed): as the sequence (Q9UM73 19-1620 limits assumed) above, with L1178M counted along it

NCI-H2228 [8] = assay: Inhibition of colony formation in human NCI-H2228 cells assessed as reduction in colony area at 50 nM incubated for 3 day by crystal violet staining based assay; assay type: functional; conditions: NCI-H2228, 72 h
NCI-H2228 [9] = assay: Induction of apoptosis in human NCI-H2228 cells assessed as nuclei fragmentation by measuring brilliant blue fluorescence at 25 to 100 nM incubated for 48 hrs by Hoechst 33342 staining based fluorescence microscopic analysis; assay type: functional, cell-based; conditions: dose 25-100 nM
NCI-H2228 [10] = assay: Induction of apoptosis in human NCI-H2228 cells assessed as early apoptotic cells at 100 nM incubated for 48 hrs by AnnexinV-FITC/propidium iodide staining based flow cytometry analysis (reference value: 2.45 %); assay type: functional
NCI-H2228 [11] = assay: Induction of apoptosis in human NCI-H2228 cells assessed as viable cells at 50 nM incubated for 48 hrs by AnnexinV-FITC/propidium iodide staining based flow cytometry analysis (reference value: 92.3 %); assay type: functional; conditions: read-out: Activity
NCI-H2228 [12] = assay: Inhibition of cell migration in human NCI-H2228 cells at 2.5 to 10 nM by inverted microscopic based cell scratch assay; assay type: functional; conditions: dose 2.5-10 nM, time 24-48 hrs, TDE = time-dependent effect
NCI-H2228 [13] = assay: Induction of cell cycle arrest in human NCI-H2228 cells assessed as decrease in S phase cells at 50 nM incubated for 48 hrs by PI/RNase staining based flow cytometry analysis (reference value: 34.90 %); assay type: functional; design: scale not given: the % may be the effect or the level left
[14] = AUC (0 to infinity) in Sprague-Dawley rat at 10 mg/kg, po by LC-MS/MS analysis; assay type: ADME, organism-based; design: time infinity, dose 10 mg/kg, route po; conditions: in vivo
NCI-H2228 [15] = assay: Induction of apoptosis in human NCI-H2228 cells assessed as orange red fluorescence at 25 to 100 nM incubated for 48 hrs by AO/EB staining based fluorescence microscopic analysis; assay type: functional, cell-based; conditions: dose 25-100 nM
[16] = Antiproliferative activity […] EML4-ALK cells assessed as inhibition of cell growth incubated for 72 hrs by MTT assay; assay type: functional, cell-based
HCT-116 = assay: cells; conditions: Homo sapiens, HCT-116, 72 h
Description: Antiproliferative activity against human HCT-116 cells assessed as inhibition of cell growth incubated for 72 hrs by MTT assay

NCI-H2228 [17] = assay: Induction of apoptosis in human NCI-H2228 cells assessed as necrotic cells at 100 nM incubated for 48 hrs by AnnexinV-FITC/propidium iodide staining based flow cytometry analysis (reference value: 0.55 %); assay type: functional
[18] = Clearance in Sprague-Dawley rat at 2 mg/kg, iv by LC-MS/MS analysis; assay type: ADME, organism-based; conditions: in vivo
[19] = Antiproliferative activity against human HEK293T cells assessed as inhibition of cell growth incubated for 72 hrs by MTT assay; assay type: toxicity, cell-based, HEK-293T
[20] = MRT in Sprague-Dawley rat at 2 mg/kg, iv by LC-MS/MS analysis; assay type: ADME, organism-based; conditions: in vivo
NCI-H2228 [21] = assay: Inhibition of colony formation in human NCI-H2228 cells assessed as reduction in colony area at 100 nM incubated for 3 day by crystal violet staining based assay; assay type: functional; conditions: NCI-H2228, 72 h
NCI-H2228 [22] = assay: Induction of apoptosis in human NCI-H2228 cells assessed as late apoptotic cells at 50 nM incubated for 48 hrs by AnnexinV-FITC/propidium iodide staining based flow cytometry analysis (reference value: 4.72 %); assay type: functional
[23] = Cmax in Sprague-Dawley rat at 10 mg/kg, po by LC-MS/MS analysis; assay type: ADME, organism-based; design: dose 10 mg/kg, route po; conditions: in vivo
NCI-H2228 [24] = assay: Induction of apoptosis in human NCI-H2228 cells assessed as ruptured nuclei at 25 to 100 nM incubated for 48 hrs by Hoechst 33342 staining based fluorescence microscopic analysis; assay type: functional, cell-based; conditions: dose 25-100 nM
NCI-H2228 [25] = assay: Inhibition of cell migration in human NCI-H2228 cells at 10 nM measured at 48 hrs by inverted microscopic based cell scratch assay relative to control; assay type: functional
[26] = biological target: T1, ALK tyrosine kinase receptor; assay: Inhibition of N-terminal GST-tagged human wild type ALK (1058 to 1620 residues) cytoplasmic domain expressed in baculovirus infected Sf21 cells incubated for 1 hrs in the presence of ATP by mobility shift assay
Target sequence in this assay (Q9UM73 whole entry): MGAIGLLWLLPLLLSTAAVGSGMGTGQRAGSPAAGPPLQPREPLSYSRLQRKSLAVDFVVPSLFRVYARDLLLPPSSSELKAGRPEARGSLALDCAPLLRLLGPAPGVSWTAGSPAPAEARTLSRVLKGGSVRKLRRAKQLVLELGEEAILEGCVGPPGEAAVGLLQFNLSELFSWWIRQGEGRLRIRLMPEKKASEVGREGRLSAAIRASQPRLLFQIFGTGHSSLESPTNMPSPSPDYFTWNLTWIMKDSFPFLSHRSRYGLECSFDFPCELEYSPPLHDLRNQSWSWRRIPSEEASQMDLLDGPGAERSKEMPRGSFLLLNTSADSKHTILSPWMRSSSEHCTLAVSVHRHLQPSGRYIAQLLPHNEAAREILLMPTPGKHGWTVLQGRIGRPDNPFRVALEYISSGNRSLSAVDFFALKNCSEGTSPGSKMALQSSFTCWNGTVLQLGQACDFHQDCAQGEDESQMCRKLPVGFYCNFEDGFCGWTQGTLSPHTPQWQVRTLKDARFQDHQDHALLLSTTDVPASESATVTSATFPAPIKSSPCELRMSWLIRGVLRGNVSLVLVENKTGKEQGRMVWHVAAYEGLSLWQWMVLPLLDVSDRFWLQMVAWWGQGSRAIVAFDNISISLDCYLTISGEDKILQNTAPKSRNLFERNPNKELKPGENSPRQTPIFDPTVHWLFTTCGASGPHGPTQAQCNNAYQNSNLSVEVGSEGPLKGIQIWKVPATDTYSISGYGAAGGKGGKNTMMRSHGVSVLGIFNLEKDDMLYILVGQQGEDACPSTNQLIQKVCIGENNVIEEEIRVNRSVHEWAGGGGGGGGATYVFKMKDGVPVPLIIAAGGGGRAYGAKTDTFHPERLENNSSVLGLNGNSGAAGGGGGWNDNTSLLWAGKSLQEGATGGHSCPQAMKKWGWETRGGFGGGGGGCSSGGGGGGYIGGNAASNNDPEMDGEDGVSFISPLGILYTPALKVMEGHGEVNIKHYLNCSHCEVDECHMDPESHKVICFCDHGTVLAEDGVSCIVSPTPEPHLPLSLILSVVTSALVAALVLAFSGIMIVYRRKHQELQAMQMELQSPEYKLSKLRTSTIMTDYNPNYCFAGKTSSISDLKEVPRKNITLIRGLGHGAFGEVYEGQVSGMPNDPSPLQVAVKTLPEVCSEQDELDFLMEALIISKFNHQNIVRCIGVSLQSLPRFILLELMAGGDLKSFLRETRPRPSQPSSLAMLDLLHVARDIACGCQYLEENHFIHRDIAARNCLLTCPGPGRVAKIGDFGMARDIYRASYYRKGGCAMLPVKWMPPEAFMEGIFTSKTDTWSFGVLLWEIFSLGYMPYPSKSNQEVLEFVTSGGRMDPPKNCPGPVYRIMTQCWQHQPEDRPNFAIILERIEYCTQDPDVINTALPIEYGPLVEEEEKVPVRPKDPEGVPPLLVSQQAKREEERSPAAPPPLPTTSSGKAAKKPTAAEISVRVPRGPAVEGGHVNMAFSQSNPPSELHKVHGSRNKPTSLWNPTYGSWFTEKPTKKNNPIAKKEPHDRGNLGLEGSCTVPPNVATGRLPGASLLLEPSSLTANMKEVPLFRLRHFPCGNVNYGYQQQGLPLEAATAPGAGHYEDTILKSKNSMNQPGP

[27] = Oral bioavailability in Sprague-Dawley rat at 10 mg/kg by LC-MS/MS analysis; assay type: ADME, organism-based; conditions: in vivo
[28] = biological target: T1, ALK tyrosine kinase receptor; assay: Inhibition of ALK downstream signalling in human NCI-H2228 cells assessed as reduction in ERK level measured after 24 hrs by Western blot analysis; assay type: cell-based; conditions: dose 25-100 nM, DDE = dose-dependent effect
Target sequence in this assay (Q9UM73 19-1620 limits assumed): as the sequence (Q9UM73 19-1620 limits assumed) above

NCI-H2228 [29] = assay: Inhibition of cell migration in human NCI-H2228 cells measured at 24 to 48 hrs by inverted microscopic based cell scratch assay; assay type: functional; conditions: dose 2.5-10 nM, time 24-48 hrs, DDE = dose-dependent effect
[30] = AUC (0 to t) in Sprague-Dawley rat at 2 mg/kg, iv by LC-MS/MS analysis; assay type: ADME, organism-based; design: dose 2 mg/kg, route iv; conditions: in vivo
[31] = Metabolic stability in Sprague-Dawley rat liver microsomes assessed as parent compound remaining measured upto 60 mins by HPLC analysis; assay type: ADME, Microsome; conditions: read-out: Stability
NCI-H2228 [32] = assay: Induction of cell cycle arrest in human NCI-H2228 cells assessed as increase in G1 phase cells at 25 nM incubated for 48 hrs by PI/RNase staining based flow cytometry analysis (reference value: 49.72 %); assay type: functional
NCI-H2228 [33] = assay: Inhibition of cell migration in human NCI-H2228 cells at 10 nM measured at 24 hrs by inverted microscopic based cell scratch assay relative to control; assay type: functional
[34] = Antiproliferative activity against human HELF cells assessed as inhibition of cell growth incubated for 72 hrs by MTT assay; assay type: toxicity, cell-based
NCI-H2228 [35] = assay: Induction of cell cycle arrest in human NCI-H2228 cells assessed as decrease in G2 phase cells at 25 nM incubated for 48 hrs by PI/RNase staining based flow cytometry analysis (reference value: 15.38 %); assay type: functional; design: scale not given: the % may be the effect or the level left

CNC(=O)c1ccccc1Nc1nc(Nc2ccc3c(C(=O)N(C)C)c(C)[nH]c3c2)ncc1Cl
Activity (NCI-H2228 [1]): Active | Activity (NCI-H2228 [2]): 58.51% | inhibition [3]: Dde | Activity (NCI-H2228 [4]): 14.23% | Activity (NCI-H2228 [5]): 12.18% | Activity (NCI-H2228 [6]): 7.44% | IC50 [7]: 0.0037 µM | inhibition at 0.05 µM (NCI-H2228 [8]): 50% | Activity (NCI-H2228 [9]): Active | Activity (NCI-H2228 [10]): 8.7% | viability at 0.05 µM (NCI-H2228 [11]): 74.4% | inhibition (NCI-H2228 [12]): Tde | Activity (NCI-H2228 [13]): 32.28% | AUC(0-inf) [14]: 1760 ng·h/mL | Activity (NCI-H2228 [15]): Active | IC50 [16]: 0.021 µM | IC50 (HCT-116): 1.34 µM | Activity (NCI-H2228 [17]): 1.71% | clearance [18]: 36.2 mL/min/kg | IC50 at 72 h [19]: > 10 µM | MRT [20]: 3.5 h | inhibition at 0.1 µM (NCI-H2228 [21]): 100% | Activity (NCI-H2228 [22]): 16.5% | Cmax [23]: 346 ng/mL | Activity (NCI-H2228 [24]): Active | inhibition at 0.01 µM (NCI-H2228 [25]): 4.5% | IC50 [26]: 0.0023 µM | bioavailability [27]: 38.2% | inhibition [28]: Dde | inhibition (NCI-H2228 [29]): Dde | AUC(0-t) [30]: 879 ng·h/mL | remaining at 1 h [31]: 90% | Activity (NCI-H2228 [32]): 53.03% | inhibition at 0.01 µM (NCI-H2228 [33]): 3.6% | IC50 at 72 h [34]: > 10 µM | Activity (NCI-H2228 [35]): 12.23%
